# Results reported in publication PMC7466159, “Anti-Metastasis Fascin Inhibitors Decrease the Growth of Specific Subtypes of Cancers” (Cancers, 2020).
# How the values were obtained:
# [1] = system: HCC38 triple-negative breast cancer cells; assay: Cell growth assay, HCC38; type: cell-based; settings: HCC38 cells in culture, 10% serum
# [2] = system: MDA-MB-468 tumor cells; assay: MDA-MB-468 breast cancer model in NSG mice (tumor growth, overall survival); type: in vivo; settings: treatment from Day 14, compared with the control group
# Method: MDA-MB-468 cells and HCC38 cells grew in the presence of EGF with or without NP-G2-044. […] Finally, we used the animal model to investigate whether the primary tumor growth of MDA-MB-468 cells was sensitive to fascin inhibitors. MDA-MB-468 tumor cells were implanted into the mammary gland of NSG mice, and these mice were randomly divided into four groups. One group of mice was used as control (Figure 6I). The second group of mice was treated with the fascin inhibitor NP-G2-044 (Figure 6I). The third group was treated with the EGFR inhibitor gefitnib (Figure 6I), and the fourth group was treated with the combination of NP-G2-044 + gefitinib (Figure 6I). […] We dissected the primary tumor tissues 55 days after the tumor implantation from some mice. […] Furthermore, the overall survival of the mice was analyzed (Figure 6K).
# For the breast cancer model, MDA-MB-468 cells (5 × 10^6) suspended in PBS-matrigel (v/v, 1:1) were injected subcutaneously into the abdominal mammary gland area of female NSG mice on Day 0 as previously described. Starting on Day 14, NP-G2-044 was given once a day for 5 days every week by gavage at 300 mg kg^−1 per mouse until their death. Starting on Day 14, gefitinib was given twice weekly by gavage at 150 mg kg^−1 per mouse until their death. The control solvent was given once a day for 5 days every week by gavage according to their body weight until their death. […] The primary tumor volume was calculated as length × width^2 ×π/6.
# [3] = system: MDA-MB-468 triple-negative breast cancer cells; assay: Cell growth assay, MDA-MB-468; type: cell-based; settings: MDA-MB-468 cells in culture, 10% serum
# [4] = system: BT-20 triple-negative breast cancer cells; assay: Cell growth assay, BT-20; type: cell-based; settings: BT-20 cells in culture, 10% serum
smiles,measurement,setting,value
"COc1cc2ncnc(Nc3ccc(F)c(Cl)c3)c2cc1OCCCN1CCOCC1 [gefitinib, reference compound]",growth sensitivity,[1],sensitive
same,growth of primary tumors,[2],reduced the growth of primary tumors to the same degree
same,increase of median overall survival,[2],~ 50%
same,growth sensitivity,[3],sensitive
same,growth sensitivity,[4],sensitive
